Assay results reported in patent publication US20210238173A1, “MITOGEN-ACTIVATED PROTEIN KINASE KINASE 7 INHIBITORS” (Yeda Research and Development Co. Ltd., priority 2018, published 2021).
Values belong to the compound of their own block, whether it stands above or below them.

Assays:
[1] = Metabolic stability in dog liver microsomes; type: in vitro ADME
From the text: (§1) A reference compound, REF1250, was used in this study: […]

[2] = Metabolic stability in human liver microsomes; type: in vitro ADME
From the text: as §1

primary mouse B-cells = assay: Primary B-cell activation (CD86+ FACS) in response to LPS; type: cell-based; conditions: for IC50: full dose response
From the text: Compounds Block Activation of Primary Mouse B-Cells:
JNK is known to mediate activation of B-cells in response to lypopolysacharide (LPS) through the TLR4 signaling pathway as well as in response to B-cell receptor activation (stimulated e.g. with an anti-IgM antibody). Primary B-cells were isolated from the spleen of mice and assessed for their B-cell activation, via FACS analysis of CD86+ expression, in response to LPS in the presence or absence of the covalent MKK7 enzyme inhibitors presented herein, as well as a positive control JNK inhibitor, JNK-IN-8.
At 10 μM and 2 hours pre-incubation before stimulation, GO80 was able to inhibit 60% of the CD86+ response.

[3] = Metabolic stability in monkey liver microsomes; type: in vitro ADME
From the text: as §1

pJNK in 3T3 WT cells = assay: In-cell western (ICW) pJNK inhibition in 3T3 WT; type: cell-based
Experimental: (§2) HEK293, Beas2B and 3T3 cells were plated 24 hours before procedure on 384 well clear bottom black flat plates (Corning) pre-coated with Fibronectin (Sigma) diluted in PBS to a concentration of 5 μg/ml 45 minutes prior to cells introduction. Cells were plated using Multidrop™ Combi reagent dispenser (Thermo Fisher Scientific). Compound, reagents and antibody dispensing as well as washes were performed with a CyBio liquid handler (Analytik). Cells were pre-incubated with a small molecule or up to 1% DMSO for 2 h before fixation. HEK293, 3T3 or Beas2B cells were treated with 0.6M/0.2M/0.2M D-Sorbitol/PBS (Sigma) for 20/40/40 min. respectively, before fixation. Media was removed and wells were immediately fixed with 150 μl per well of 3.7% formaldehyde/PBS fixing solution for 20 min. Formaldehyde was then aspired and cells were permeabilized with 150 μl of 0.5% Triton x-100/PBS solution for 10 min. After aspiration cells were washed with ice-cold methanol and stored at −20° C., for 10 min. Methanol was aspired and cells were blocked with 150 μl blocking buffer (LICOR) for 90 min. Primary antibody Phospho-SAPK/JNK T183/Y185 (CST; 9251S) was diluted 1:1000 in blocking buffer and was applied 50 μl per well, except control wells to which only blocking buffer was applied, O.N. (16 h) at 4° C. with mild shaking. Primary antibody was aspired, wells were washed with 150 μl 0.1% Tween20/PBS (Sigma) washing solution three times for 7 min. IRDye® 800CW Goat anti-Rabbit IgG Secondary antibody (LICOR) was then diluted 1:1200 in blocking buffer with 50 μl applied per well on control wells only (no CellTag control), then CellTag700 (1:2000) was added to the solution and 50 μl were added to all experiment wells, for 1 h at room temperature. Wells were aspired and washed again with 150 μl 0.1% Tween20/PBS (Sigma) washing solution three times for 7 min. plate was dried and scanned with Odyssey CLx imaging system at 700 nm and 800 nm (Licor). Wells signals were analyzed with Odyssey software. The signal was normalized by the CellTag700 signal.
(§3) To rapidly assess the cellular activity (EC50) with full dose response curves of the MKK7 covalent inhibitors, according to some embodiments of the present invention, an in-cell western assay was adapted to a 384 well plate format over traditional western blot, and monitored phospho-JNK (pJNK) levels in response to osmotic shock. We first characterized the dynamics of pJNK in response to sorbitol. Sufficient dynamic range for pJNK is achieved at 20 minutes in HEK293 cells and at 40 minutes in 3T3 and Beas2B cells. The compound's activity was assessed by pre-treating cells with either compound or DMSO for 2 hours, followed by Sorbitol stimulation. The response of pJNK, and its substrates, pc-Jun and pATF2, was measured, as well as pP38, which is a substrate of MKK4 but not MKK7, and pERK in HEK293 cells, and the results are presented in Table 5 below.
Wildtype 3T3 cells, 3T3 MKK7 double knock-out (MKK7^−/−) cells and MKK4/7 double knockouts (MKK4/7^−/−) were used to validate on target activity of the MKK7 covalent inhibitors presented herein.

[4] = Metabolic stability in rat liver microsomes; type: in vitro ADME
From the text: as §1

[5] = Metabolic stability in mouse liver microsomes; type: in vitro ADME
From the text: as §1

JNK activation = assay: KTR reporter live cell imaging of JNK activation; type: cell-based; conditions: Homo sapiens; HEK293 cells; read-out: EC50 of test and control compounds
From the text: As an orthogonal assay for the ICW we used a KTR reporter cell line for JNK activation via live cell imaging.

pJNK in HEK293 cells = assay: In-cell western (ICW) pJNK inhibition in HEK293; type: cell-based; conditions: Homo sapiens, HEK293, HEK293, ICW, 2 h pre-incubation, sorbitol stimulation
Experimental: as §2, §3

[6] = target: T1, MKK7 in MDA-MB-231 lysate (Homo sapiens, UniProt O14733); assay: Proteomic selectivity labeling in human cell lysate (MDA-MB-231); type: binding
T1 construct: endogenous in cells; host or cells: MDA-MB-231
T1 sequence (O14733 1-419): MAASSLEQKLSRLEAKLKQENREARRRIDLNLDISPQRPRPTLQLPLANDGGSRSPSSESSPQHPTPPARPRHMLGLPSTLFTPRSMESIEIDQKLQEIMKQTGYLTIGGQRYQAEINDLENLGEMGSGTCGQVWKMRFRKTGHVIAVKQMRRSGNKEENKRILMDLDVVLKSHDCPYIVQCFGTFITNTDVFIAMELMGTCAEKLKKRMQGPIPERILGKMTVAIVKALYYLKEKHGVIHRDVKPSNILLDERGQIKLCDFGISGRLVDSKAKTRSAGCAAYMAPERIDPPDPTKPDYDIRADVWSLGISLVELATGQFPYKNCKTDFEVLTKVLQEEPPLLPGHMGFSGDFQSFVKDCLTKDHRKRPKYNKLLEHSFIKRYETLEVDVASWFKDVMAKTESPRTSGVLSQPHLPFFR

% remaining @ 40 min [1]: 71% | Halflife [1]: >40 min | % remaining @ 40 min [2]: 38% | Halflife [2]: 27 min | IC50 (primary mouse B-cells): 4.9 µM | % remaining @ 40 min [3]: 41% | Halflife [3]: 33 min | % remaining @ 40 min [4]: 72% | Halflife [4]: >40 min | % remaining @ 40 min [5]: 3% | Halflife [5]: 8 min
Compound: C=CC(=O)Nc1cc(C(=O)NC)cc(-c2n[nH]c3ccccc23)c1 [PCM487]
inhibition of the CD86+ response (primary mouse B-cells; 10 μM, 2 hours pre-incubation): ~90% | EC50 (pJNK in 3T3 WT cells; 3T3 WT, ICW, 2 h pre-incubation, sorbitol stimulation, listed as PCM87): 4.06 µM

EC50 (JNK activation): > 10 µM
Compound: CCC(=O)Nc1cccc(-c2[nH]nc3ccccc23)c1 [PCM520]

EC50 (JNK activation): > 10 µM
Compound: C=CC(=O)Nc1cccc(-c2nn(C)c3ccccc23)c1 [PCM521]

Compound: C=CC(=O)N[C@@H]1CCCN(c2[nH]nc3ccccc23)C1 [PCM532]
EC50 (pJNK in HEK293 cells): > 10 µM | activity in ICW in 3T3 cells (pJNK in 3T3 WT cells; 3T3 cells): inactive

proteins labeled ([6]; at 2 μM): the only target | proteins labeled ([6]; at 5 μM): MKK7 seems to be the dominant target | proteins labeled ([6]; at 10 μM): labels many proteins | IC50 (primary mouse B-cells; Mus musculus, B-cell): 5.3 µM
Compound: C#CCNC(=O)c1cc(NC(=O)C=C)cc(-c2n[nH]c3ccccc23)c1 [PCM548]
inhibition at 10 µM (primary mouse B-cells; Mus musculus, B-cell, 10 μM, 2 hours pre-incubation): ~90%
